Data set [1] can be described thus: Ugi macrocyclisation (intramolecular U-4C-3CR type): alpha,omega-amino acid + indole-3-carboxaldehyde (imine formation, MW 120 °C, 1 h), then tert-butyl isocyanide (MW 120 °C, 1 h); ring bond formed = amide between carboxyl C and amine N (via Mumm acyl transfer). The conditions noted are these: the molecule shown is the open-chain precursor, MeOH, 100.0 mM, 2.0 h.

The target in data set [2] is 15N-labeled MDM2 (N-terminal domain of human MDM2, residues 1-118) (Homo sapiens, UniProt Q00987). The experiment in a line: 1H,15N HSQC NMR titration of 15N-labeled MDM2. The format is binding. The conditions noted are these: 1H,15N HSQC titration, 7–9 ligand/protein ratios 0 to 5; 0.20–0.35 mM 15N MDM2; 50 mM phosphate pH 7.4, 150 mM NaCl, 5 mM DTT, 10% D2O; 300K; 50 mM ligand stock in DMSO; weighted mean of KD's of most perturbed residues in fast chemical exchange.
Method: Protein expression and purification
Fragment of the N-terminal domain of human MDM2 (residues 1-118) was cloned into the pET-20 (Novagen) and expressed in E. coli strain BL21-CodonPlus(DE3)-RIL as described previously.1 In brief, cells were cultured at 37 °C. Protein expression was induced with 1 mM IPTG at OD600 of 0.8 and cultured for additional 5 h at 37 °C. Cells were collected by centrifugation and lysed by sonication. Inclusion bodies were collected by centrifugation, washed with PBS containing 0.05% Triton-X100 and subsequently solubilized in 6 M guanidine hydrochloride in 100 mM Tris-HCl, pH 8.0, containing 1 mM EDTA and 10 mM β-mercaptoethanol. The protein was dialyzed against 4 M guanidine hydrochloride pH 3.5 supplemented with 10 mM β-mercaptoethanol. Following, the protein was refolded by dropwise addition into 10 mM Tris-HCl, pH 7.0, containing 1 mM EDTA and 10 mM β-mercaptoethanol and slow mixing overnight at 4 °C. Ammonium sulfate was added to the final concentration of 1.5 M and the refolded protein was recovered on Butyl Sepharose 4 Fast Flow (GE Healthcare). […]
Uniform 15N isotope labeling was achieved by expression of the protein in the M9 minimal media containing 15NH4Cl as the sole nitrogen source. […] Water suppression was carried out using the WATERGATE sequence.2 All the spectra were recorded at 300K using a Bruker Avance 600 MHz spectrometer with the Cryo-Platform.

Data on 17 compounds can be found in publication PMC6404402, “Design of indole- and MCR-based macrocycles as p53-MDM2 antagonists” (Beilstein Journal of Organic Chemistry, 2019).

Values joined by “and” are separate entries in the source; they are usually repeats but may differ in a detail not shown here. Identical values can stand only once.

15N-labeled MDM2 (N-terminal domain of human MDM2, residues 1-118), sequence (Q00987 1-118): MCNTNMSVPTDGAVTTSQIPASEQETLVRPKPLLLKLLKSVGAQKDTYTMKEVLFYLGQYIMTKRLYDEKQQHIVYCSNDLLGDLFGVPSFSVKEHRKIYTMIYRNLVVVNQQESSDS

As to `O=C(O)COCC(=O)NCCCCCCN=Cc1c[nH]c2ccccc12`, in data set [1] (13-membered ring), the ring closure, isolated yield was 51%.

With `O=C(O)CSCC(=O)NCCCCN=Cc1c[nH]c2cc(Cl)ccc12` [2k], the ring closure, isolated yield in data set [1] (11-membered ring) turned out to be 29%.

In the case of `O=C(O)CSCC(=O)NCCCCCCN=Cc1c[nH]c2cc(Cl)ccc12` [2m], the ring closure, isolated yield in data set [1] (13-membered ring) is 39%.

On to `O=C(O)COCC(=O)NCCCCCCCCCCCCN=Cc1c[nH]c2ccccc12` [2f], for which the ring closure, isolated yield in data set [1] (19-membered ring) came to 59%.

`O=C(O)CSCC(=O)NCCCCCCCCCCCCN=Cc1c[nH]c2cc(Cl)ccc12` [2p]: the ring closure, isolated yield in data set [1] (19-membered ring) turned out to be 52%.

For the compound `O=C(O)COCC(=O)NCCCCCCCCCCCCN=Cc1c[nH]c2cc(Cl)ccc12` [2j], in data set [1] (19-membered ring), the ring closure, isolated yield is 60%.

For the compound `O=C(O)CSCC(=O)NCCCCCN=Cc1c[nH]c2cc(Cl)ccc12` [2l], the ring closure, isolated yield in data set [1] (12-membered ring) stood at 35%.

Consider `O=C(O)COCC(=O)NCCCCCCCCN=Cc1c[nH]c2cc(Cl)ccc12` [2h], for which the ring closure, isolated yield in data set [1] (15-membered ring) amounted to 25%.

Regarding `O=C(O)COCC(=O)NCCCCCCCCCCN=Cc1c[nH]c2ccccc12` [2e], the ring closure, isolated yield in data set [1] (17-membered ring) turned out to be 31%.

Regarding `CC(C)(C)NC(=O)C(c1c[nH]c2cc(Cl)ccc12)N1CCCCCCNC(=O)COCC1=O` (centres unmarked) [2g], in data set [2], the Kd is 9 µM and 8.9 µM.

On to `O=C(O)COCC(=O)NCCCCCCN=Cc1c[nH]c2cc(Cl)ccc12` [2g], for which the ring closure, isolated yield in data set [1] (13-membered ring) was determined as 35%.

On to `O=C(O)CSCC(=O)NCCCCCCCCCCN=Cc1c[nH]c2cc(Cl)ccc12` [2o], for which, in data set [1] (17-membered ring), the ring closure, isolated yield was found to be 41%.

For `O=C(O)COCC(=O)NCCCCCN=Cc1c[nH]c2ccccc12` [2b], the ring closure, isolated yield in data set [1] (12-membered ring) was determined as 35%.

For the compound `O=C(O)CSCC(=O)NCCCCCCCCN=Cc1c[nH]c2cc(Cl)ccc12` [2n], the ring closure, isolated yield in data set [1] (15-membered ring) amounted to 39%.

For the compound `O=C(O)COCC(=O)NCCCCN=Cc1c[nH]c2ccccc12` [2a], in data set [1] (11-membered ring), the ring closure, isolated yield stood at 40%.

As to `O=C(O)COCC(=O)NCCCCCCCCCCN=Cc1c[nH]c2cc(Cl)ccc12` [2i], the ring closure, isolated yield in data set [1] (17-membered ring) stood at 51%.

`O=C(O)COCC(=O)NCCCCCCCCN=Cc1c[nH]c2ccccc12` [2d]: the ring closure, isolated yield in data set [1] (15-membered ring) turned out to be 33%.
